Experimental data reported in patent publication US9296774B2, “Halogenated dideoxy sugar derivates, preparation method and application thereof” (Suzhou Harmony Biotechnology Co., Ltd., priority 2009, dated 2016).
Entries after “also recorded” stand apart in the source; their conditions may differ.

What was measured:
[1] = system: 05-732 human bone tumor; assay: Mouse transplant tumor, 05-732 human osteosarcoma; conditions: for inhibitive effect on mouse transplant tumor (in words): 05-732 human bone tumor, 125 mg/kg; for Inhibtion of tumor growth / Weight of tumor / weight end / weight start: 05-732 human osteosarcoma, 125 mg/kg once a day for 7 days; for weight end: animal weight at end; for weight start: animal weight at start
Protocol: (§1) Saline solution was used as a control. The positive group CTX was treated with the compounds at an amount of 0.4 ml/20 g. The compounds were applied once a day for consecutive 7 days.

[2] = system: MX-1 human breast cancer cells; assay: Mouse transplant tumor, MX-1 human breast cancer; conditions: for inhibitive effect on mouse transplant tumor (in words): 125 mg/kg; for Inhibition of tumor growth / Weight of tumor / weight end / weight start: 125 mg/kg once a day for 7 days; for weight end: animal weight at end; for weight start: animal weight at start;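 as to all read-outs here: mice given saline served as the control group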
Protocol: as §1

[3] = system: MGC human stomach cancer cells; assay: Mouse transplant tumor, MGC human stomach cancer; conditions: for inhibitive effect on mouse transplant tumor (in words): 125 mg/kg; for Inhibition of tumor growth / Weight of tumor / weight end / weight start: 125 mg/kg once a day for 7 days; for weight end: animal weight at end; for weight start: animal weight at start;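 as to all read-outs here: control group received saline vehicle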
Protocol: Saline solution was used as a control. The positive group CTX was treated with the compounds at an amount of 0.4 ml/20 g. The compounds were applied once a day for consecutive 7 days. The animals were then compensated.

[4] = system: anaplastic thyroid carcinoma TA-K cells; assay: Mouse transplant tumor, human anaplastic thyroid carcinoma TA-K; conditions: for inhibitive effect on mouse transplant tumor (in words): anaplastic thyroid carcinoma TA-K, 125 mg/kg; for Inhibition of tumor growth / Weight of tumor / weight end / weight start: human anaplastic thyroid carcinoma TA-K, 125 mg/kg once a day for 7 days; for weight end: animal weight at end; for weight start: animal weight at start;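 as to all read-outs here: Tumor-bearing mice compared against a saline-treated control group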
Protocol: as §1

[5] = system: B16 malignant melanoma; assay: Mouse transplant tumor, B16 malignant melanoma; conditions: for Inhibition of tumor growth (%) / Weight of tumor / weight end / weight start: B16, 125 mg/kg once a day for 7 days; for weight end: body weight at end; for weight start: body weight at start; for inhibitive effect on mouse transplant tumor (in words): B16 malignant melanoma, 125 mg/kg
Protocol: as §1

[6] = system: mouse; assay: Acute toxicity (LD50), mouse ig
[7] = system: AsPc human pancreatic cancer cells; assay: Mouse transplant tumor, AsPc human pancreatic cancer; conditions: for inhibitive effect on mouse transplant tumor (in words): 125 mg/kg; for Inhibition of tumor growth / Weight of tumor / weight end / weight start: 125 mg/kg once a day for 7 days; for weight end: animal weight at end; for weight start: animal weight at start;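 as to all read-outs here: Saline-treated mice served as the control group, with a CTX-treated group as positive reference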
Protocol: as §1

[8] = system: mouse; assay: Acute toxicity (LD50), mouse ip injection; conditions: mouse ip after injection

Row | Compound | inhibitive effect on mouse transplant tumor (in words) [1] | Inhibtion of tumor growth [1] | Weight of tumor [1] | weight end [1] | weight start [1] | inhibitive effect on mouse transplant tumor (in words) [2] | Inhibition of tumor growth [2] | Weight of tumor [2] | weight end [2] | weight start [2] | inhibitive effect on mouse transplant tumor (in words) [3] | Inhibition of tumor growth [3] | Weight of tumor [3] | weight end [3] | weight start [3] | inhibitive effect on mouse transplant tumor (in words) [4] | Inhibition of tumor growth [4] | Weight of tumor [4] | weight end [4] | weight start [4] | also measured
1 | CC(=O)OCC1OC(OP(=O)(O)N(CCCl)CCCl)CC(Br)C1OC(C)=O (stereo not shown) [Compound 10] | good inhibitive effect; also recorded: significant effect | 78.4 | 0.6 | 18.3 | 18.3 | good inhibitive effect; also recorded: significant effect | 73.2 | 0.7 | 18.3 | 18.3 | good inhibitive effect; also recorded: significant effect | 73.2 | 0.6 | 18.3 | 18.3 | good inhibitive effect; also recorded: significant effect | 71.2 | 0.8 | 18.3 | 18.3 | Inhibition of tumor growth (%) [5]: 73.1%; Weight of tumor [5]: 0.7; weight end [5]: 18.3; weight start [5]: 18.3; inhibitive effect on mouse transplant tumor (in words) [5]: good inhibitive effect; also recorded: significant effect; LD50 [6]: 2223.7 mg/kg; inhibitive effect on mouse transplant tumor (in words) [7]: good inhibitive effect; also recorded: significant effect; Inhibition of tumor growth [7]: 76.9; Weight of tumor [7]: 0.5; weight end [7]: 18.3; weight start [7]: 18.3; LD50 [8]: 315.6 mg/kg
2 | CC(=O)OCC1OC(OP(=O)(O)N(CCCl)CCCl)C(Br)CC1OC(C)=O (stereo not shown) [Compound 12] | significant effect | 75.1 | 0.5 | 18.4 | 18.2 | significant effect | 82.1 | 0.4 | 18.4 | 18.2 | significant effect | 80.5 | 0.5 | 18.4 | 18.2 | significant effect | 75.8 | 0.6 | 18.4 | 18.2 | Inhibition of tumor growth (%) [5]: 79.5%; Weight of tumor [5]: 0.5; weight end [5]: 18.4; weight start [5]: 18.2; inhibitive effect on mouse transplant tumor (in words) [5]: significant effect; LD50 [6]: 2101.4 mg/kg; inhibitive effect on mouse transplant tumor (in words) [7]: significant effect; Inhibition of tumor growth [7]: 77.5; Weight of tumor [7]: 0.5; weight end [7]: 18.4; weight start [7]: 18.2; LD50 [8]: 306.4 mg/kg
